Ends that are not written are not given here.
What was measured:
[1] = Cytotoxicity (MTT) of oligopeptide in HaCaT human keratinocytes; format: cell-based; details: 24 hr, MTT absorbance 570 nm as percentage of pure water control
Protocol: (§1) In order to evaluate the stability of the oligopeptide prepared in Preparation Example 1 when applied to humans, irritation of the skin and scalp due to cytotoxicity was measured using a HaCaT cell line as human keratinocytes.
(§2) The HaCaT cell line used therefor was incubated at 37° C. in a […] incubator. When the extent of incubation arrived at 85 to 90% of the area of a culture vessel, the cells were detached with trypsin, counted, and subjected to subculture at 5×10^3 cells/cm^2.
(§3) For cell culture, a Dulbecco's Modified Eagle Medium (DMEM, GIBCO, Cat. No. 11995-065, USA), containing 10% fetal bovine serum (FBS, GIBCO, Cat. No., 26140-079, USA), 100 U/ml penicillin, and 100 μg/ml streptomycin, was used. For subculture, a 75 T-flask (NUNC, Cat. No. 156499, Denmark) was used, and the cytotoxicity test was carried out using a 24-well plate (NUNC, Cat. No. 142475, Denmark).
(§4) The human keratinocytes were counted at 5×10^3 cells/well each and then aliquoted into the 24-well plate using a hemocytometer. These cells were incubated in DMEM containing 10% FBS for 48 hr. When the extent of incubation arrived at 40 to 50% of the surface area of the culture vessel, the medium was replaced with FBS-free DMEM containing each of 50 ppm oligopeptide and 100 ppm oligopeptide, and culture was further conducted for 24 hr. Thereafter, 50 μl of a 3-(4,5-dimethylthiazol-2-yl)-2,5-diphenyl tetrazolium bromide (MTT, Sigma M5655, USA) solution (2.5 mg/ml) was added and culture was further performed for 3 hr. Then, the cell culture broth was discarded, 200 μl of dimethyl sulfoxide (DMSO, Sigma D2650, USA) was added to each well and shaken, 100 μl thereof was transferred into a 96-well plate, and the absorbance thereof was measured at 570 nm using an Enzyme-Linked Immunosorbent Assay (ELISA).
(§5) The cytotoxicity was represented as a percentage based on the absorbance intensity of a control using pure water.

HaCaT cell line = assay: as above; format: cell-based; details: 50 ppm and 100 ppm oligopeptide
Protocol: as §1, §2, §3, §4, §5

With “GQQKRSDRLNLSR-OH [Oligopeptide, Gly-Gln-Gln-Lys-Arg-Ser-Asp-Arg-Leu-Asn-Leu-Ser-Arg]” the viability ([1]; 50 ppm oligopeptide) was 93%, the viability ([1]; 100 ppm oligopeptide) was 81% and the “cytotoxicity compared to the control” value (HaCaT cell line) was “no cytotoxicity”.

From patent publication US20170340544A1, “COSMETIC COMPOSITION FOR IMPROVING HEALTH OF SCALP AND METHOD OF PREPARING THE SAME” (OLIPASS Cosmeceuticals Company, priority 2016, published 2017)
